Tests used:
[1] = molecular target: T1, phosphorylated EGFR (pEGFR) (Homo sapiens, UniProt P00533); assay: Detection of phosphorylated EGFR (pEGFR) in EGF-stimulated A431 cells (AlphaLISA); type: cell-based; details: A431 cells (10% FBS), 4 hours with compound, then EGF 30 ng/mL for 10 minutes
T1 construct: endogenous in cells; host or cells: A431

[2] = molecular target: T2, BaF3 EGFR-D770-N771insSVD (Homo sapiens, UniProt P00533, DUP768-770, cells depend on it); assay: Cell viability assay (CellTiter Glo); type: cell-based, mouse; details: 72 hours; 3000 cells per well, 96-well plates; read-out: Cell viability IC50, nM, BaF3 EGFR-D770-N771insSVD
T2 construct: Ba/F3 cell lines were engineered to express human ERBB2 or EGFR kinases, rendering the cells IL-3 independent
T2 sequence (P00533 with tags, fused parts or gaps DUP768-770): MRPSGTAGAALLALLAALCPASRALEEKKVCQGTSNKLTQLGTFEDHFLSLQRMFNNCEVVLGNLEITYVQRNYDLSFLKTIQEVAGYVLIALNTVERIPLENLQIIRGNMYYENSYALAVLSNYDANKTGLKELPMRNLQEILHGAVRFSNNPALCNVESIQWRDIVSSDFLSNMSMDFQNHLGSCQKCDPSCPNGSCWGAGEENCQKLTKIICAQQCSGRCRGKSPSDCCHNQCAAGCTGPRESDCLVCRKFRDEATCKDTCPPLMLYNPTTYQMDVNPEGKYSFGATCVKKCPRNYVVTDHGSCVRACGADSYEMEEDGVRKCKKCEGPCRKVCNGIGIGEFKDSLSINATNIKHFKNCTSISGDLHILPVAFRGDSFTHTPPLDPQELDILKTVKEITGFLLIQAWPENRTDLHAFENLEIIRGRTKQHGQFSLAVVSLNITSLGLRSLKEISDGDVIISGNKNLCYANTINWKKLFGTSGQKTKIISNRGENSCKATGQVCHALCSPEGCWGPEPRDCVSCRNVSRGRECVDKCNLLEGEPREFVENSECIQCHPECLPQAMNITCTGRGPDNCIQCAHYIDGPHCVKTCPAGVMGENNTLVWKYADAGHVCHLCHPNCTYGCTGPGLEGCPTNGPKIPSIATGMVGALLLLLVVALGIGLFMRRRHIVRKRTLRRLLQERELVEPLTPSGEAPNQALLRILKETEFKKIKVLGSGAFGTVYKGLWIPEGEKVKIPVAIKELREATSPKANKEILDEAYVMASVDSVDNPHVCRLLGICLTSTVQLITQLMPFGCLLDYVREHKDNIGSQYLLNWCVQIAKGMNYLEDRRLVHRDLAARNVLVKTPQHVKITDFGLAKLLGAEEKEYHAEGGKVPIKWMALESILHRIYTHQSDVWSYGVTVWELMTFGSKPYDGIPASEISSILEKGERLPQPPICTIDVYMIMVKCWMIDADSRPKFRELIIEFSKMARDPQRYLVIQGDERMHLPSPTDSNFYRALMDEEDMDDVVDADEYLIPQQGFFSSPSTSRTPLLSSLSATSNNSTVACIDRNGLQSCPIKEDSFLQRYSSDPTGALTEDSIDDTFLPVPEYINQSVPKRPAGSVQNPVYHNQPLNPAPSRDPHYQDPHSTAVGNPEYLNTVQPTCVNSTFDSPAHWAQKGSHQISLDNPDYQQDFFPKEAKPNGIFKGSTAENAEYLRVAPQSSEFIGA
Procedure, shortened: (§1)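 Murine Ba/F3 cells made IL-3-independent by retroviral human EGFR or ERBB2 were seeded at 3000 or 300 cells per well and exposed to serially diluted compound (DMSO ≤0.1%) for 72 hours at 37° C, 5% CO2. CellTiter Glo luminescence was normalised to DMSO and media-only controls and fitted to a sigmoidal dose-response.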

[3] = molecular target: T3, BaF3 EGFR-H773 V774insNPH (Homo sapiens, UniProt P00533, DUP771-773, cells depend on it); assay: Cell viability assay (CellTiter Glo); type: cell-based, mouse; details: 72 hours; 3000 cells per well, 96-well plates; read-out: Cell viability IC50, nM, BaF3 EGFR-H773 V774insNPH
T3 construct: Ba/F3 cell lines were engineered to express human ERBB2 or EGFR kinases, rendering the cells IL-3 independent
T3 sequence (P00533 with tags, fused parts or gaps DUP771-773): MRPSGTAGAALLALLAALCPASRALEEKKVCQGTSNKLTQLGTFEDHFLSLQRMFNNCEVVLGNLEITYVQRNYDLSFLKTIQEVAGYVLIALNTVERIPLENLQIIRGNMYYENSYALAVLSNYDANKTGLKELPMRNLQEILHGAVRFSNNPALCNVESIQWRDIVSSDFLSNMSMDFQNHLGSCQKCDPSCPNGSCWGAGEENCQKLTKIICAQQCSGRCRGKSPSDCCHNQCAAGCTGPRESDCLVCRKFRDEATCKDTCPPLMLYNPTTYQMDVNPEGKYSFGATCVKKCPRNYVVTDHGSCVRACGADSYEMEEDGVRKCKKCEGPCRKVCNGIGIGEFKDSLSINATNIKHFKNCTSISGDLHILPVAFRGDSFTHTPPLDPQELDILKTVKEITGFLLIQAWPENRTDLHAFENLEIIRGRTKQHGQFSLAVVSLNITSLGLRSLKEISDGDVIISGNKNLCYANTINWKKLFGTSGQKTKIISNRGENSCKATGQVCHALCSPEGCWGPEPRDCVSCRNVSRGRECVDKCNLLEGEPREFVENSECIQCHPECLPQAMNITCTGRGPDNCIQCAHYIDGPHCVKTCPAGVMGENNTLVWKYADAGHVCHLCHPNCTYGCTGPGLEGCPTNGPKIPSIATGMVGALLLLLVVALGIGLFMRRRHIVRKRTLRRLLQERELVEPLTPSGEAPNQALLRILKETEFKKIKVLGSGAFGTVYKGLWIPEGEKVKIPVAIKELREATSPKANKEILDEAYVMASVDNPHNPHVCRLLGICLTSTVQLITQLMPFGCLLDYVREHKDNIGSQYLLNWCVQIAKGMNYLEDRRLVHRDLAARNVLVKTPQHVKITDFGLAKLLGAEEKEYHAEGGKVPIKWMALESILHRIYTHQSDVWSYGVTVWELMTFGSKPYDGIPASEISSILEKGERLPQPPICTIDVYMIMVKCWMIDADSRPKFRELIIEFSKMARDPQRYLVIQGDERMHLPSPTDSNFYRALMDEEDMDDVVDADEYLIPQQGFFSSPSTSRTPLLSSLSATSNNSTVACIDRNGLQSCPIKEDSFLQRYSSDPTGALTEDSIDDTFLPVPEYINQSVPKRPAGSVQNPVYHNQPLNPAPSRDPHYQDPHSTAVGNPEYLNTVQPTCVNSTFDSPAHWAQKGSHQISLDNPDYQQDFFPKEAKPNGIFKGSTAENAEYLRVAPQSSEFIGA
Procedure, shortened: as §1

[4] = molecular target: T4, BaF3-EGFR-V769 D770insASV (Homo sapiens, UniProt P00533, DUP767-769, cells depend on it); assay: Cell viability assay (CellTiter Glo); type: cell-based, mouse; details: 72 hours; 3000 cells per well, 96-well plates; read-out: Cell viability IC50, nM, BaF3-EGFR-V769 D770insASV
T4 construct: Ba/F3 cell lines were engineered to express human ERBB2 or EGFR kinases, rendering the cells IL-3 independent
T4 sequence (P00533 with tags, fused parts or gaps DUP767-769): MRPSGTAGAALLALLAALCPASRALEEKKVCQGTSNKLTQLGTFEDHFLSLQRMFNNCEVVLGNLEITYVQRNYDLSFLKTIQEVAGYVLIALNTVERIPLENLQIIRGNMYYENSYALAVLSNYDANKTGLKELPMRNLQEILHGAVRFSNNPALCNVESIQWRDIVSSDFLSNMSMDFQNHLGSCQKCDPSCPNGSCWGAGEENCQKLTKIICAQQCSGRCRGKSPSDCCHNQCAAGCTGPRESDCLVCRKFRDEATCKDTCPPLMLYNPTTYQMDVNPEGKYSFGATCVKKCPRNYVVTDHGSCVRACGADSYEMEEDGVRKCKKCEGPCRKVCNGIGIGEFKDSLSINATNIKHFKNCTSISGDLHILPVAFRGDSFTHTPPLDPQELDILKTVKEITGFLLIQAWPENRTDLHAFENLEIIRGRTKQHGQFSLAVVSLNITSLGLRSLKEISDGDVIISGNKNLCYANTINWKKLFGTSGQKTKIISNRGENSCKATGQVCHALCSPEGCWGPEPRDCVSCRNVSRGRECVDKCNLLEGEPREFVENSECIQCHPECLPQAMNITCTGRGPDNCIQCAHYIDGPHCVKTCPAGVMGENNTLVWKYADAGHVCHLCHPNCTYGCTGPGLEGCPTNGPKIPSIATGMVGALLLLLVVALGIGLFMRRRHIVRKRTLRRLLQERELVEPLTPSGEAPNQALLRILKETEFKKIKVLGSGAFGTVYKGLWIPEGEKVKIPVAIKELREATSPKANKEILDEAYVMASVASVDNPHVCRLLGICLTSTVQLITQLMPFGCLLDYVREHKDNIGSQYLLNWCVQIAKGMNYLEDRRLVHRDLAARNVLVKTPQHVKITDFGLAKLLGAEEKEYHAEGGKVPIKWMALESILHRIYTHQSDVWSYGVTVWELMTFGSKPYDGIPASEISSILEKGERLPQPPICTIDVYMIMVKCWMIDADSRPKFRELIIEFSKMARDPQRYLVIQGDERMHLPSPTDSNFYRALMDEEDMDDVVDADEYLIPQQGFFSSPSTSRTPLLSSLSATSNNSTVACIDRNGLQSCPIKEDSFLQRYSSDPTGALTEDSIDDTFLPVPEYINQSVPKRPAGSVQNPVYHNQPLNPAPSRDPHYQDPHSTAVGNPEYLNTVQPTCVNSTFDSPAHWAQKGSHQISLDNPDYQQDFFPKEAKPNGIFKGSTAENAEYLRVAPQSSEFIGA
Procedure, shortened: as §1

T1 sequence (P00533 25-1210): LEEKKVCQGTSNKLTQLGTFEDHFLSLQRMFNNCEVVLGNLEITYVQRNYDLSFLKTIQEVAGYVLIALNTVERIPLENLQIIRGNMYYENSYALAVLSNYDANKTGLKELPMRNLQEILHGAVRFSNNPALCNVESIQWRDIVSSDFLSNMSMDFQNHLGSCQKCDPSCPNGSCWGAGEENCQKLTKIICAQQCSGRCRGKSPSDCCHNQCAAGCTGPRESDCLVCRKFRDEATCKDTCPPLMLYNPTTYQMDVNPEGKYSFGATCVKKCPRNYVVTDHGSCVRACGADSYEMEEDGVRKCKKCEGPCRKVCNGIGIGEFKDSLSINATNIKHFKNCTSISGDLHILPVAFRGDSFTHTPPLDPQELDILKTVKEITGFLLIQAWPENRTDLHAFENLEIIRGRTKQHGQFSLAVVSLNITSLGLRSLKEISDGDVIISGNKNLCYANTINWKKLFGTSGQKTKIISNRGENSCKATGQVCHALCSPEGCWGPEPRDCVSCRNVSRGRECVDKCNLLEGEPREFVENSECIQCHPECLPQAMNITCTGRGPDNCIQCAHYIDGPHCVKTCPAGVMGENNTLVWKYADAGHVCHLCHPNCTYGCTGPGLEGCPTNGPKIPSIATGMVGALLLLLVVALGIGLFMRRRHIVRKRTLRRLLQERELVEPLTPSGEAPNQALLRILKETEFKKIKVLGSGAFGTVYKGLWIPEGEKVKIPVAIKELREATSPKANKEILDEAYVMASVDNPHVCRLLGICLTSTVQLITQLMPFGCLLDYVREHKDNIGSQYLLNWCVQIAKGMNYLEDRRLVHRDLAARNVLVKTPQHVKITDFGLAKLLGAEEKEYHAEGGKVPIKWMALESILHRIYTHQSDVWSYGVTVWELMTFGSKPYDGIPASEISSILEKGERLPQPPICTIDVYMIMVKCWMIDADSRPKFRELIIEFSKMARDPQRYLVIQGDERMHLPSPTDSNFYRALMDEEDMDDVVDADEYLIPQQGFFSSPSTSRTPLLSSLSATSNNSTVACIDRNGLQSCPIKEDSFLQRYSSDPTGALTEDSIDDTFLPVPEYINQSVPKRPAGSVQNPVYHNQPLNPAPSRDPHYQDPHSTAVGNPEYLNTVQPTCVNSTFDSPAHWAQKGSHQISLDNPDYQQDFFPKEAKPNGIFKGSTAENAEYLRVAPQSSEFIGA

IC50 [1] [nM] | SMILES | GI50 [2] [nM] | GI50 [3] [nM] | GI50 [4] [nM]
233 | CC#CC(=O)Nc1cc2c(Nc3ccc(Oc4ccn5ncnc5c4)c(C)c3)ncnc2cc1OCCN(C)C [Compound 150, N-[7-[2-(dimethylamino)ethoxy]-4-[(3-methyl-4-[[1,2,4]triazolo[1,5-a]pyridin-7-yloxy]phenyl)amino]quinazolin-6-yl]but-2-ynamide] |  |  | 
 | CC#CC(=O)Nc1ccc2ncnc(Nc3ccc(Oc4ccn5ncnc5c4)c(C)c3)c2c1 [Compound 1, N-[4-[(3-methyl-4-[[1,2,4]triazolo[1,5-a]pyridin-7-yloxy]phenyl)amino]quinazolin-6-yl]but-2-ynamide] | 775 | > 1000 | 861

Reference: US20230265098A1, “ALKYNE QUINAZOLINE DERIVATIVES AS INHIBITORS OF ERBB2” (EnLiven Therapeutics, Inc., priority 2020, published 2023)
